In assay [1] the target is T1, hACE2 (Homo sapiens, UniProt Q9BYF1). In words: ACE2 binding assay (ACE2 Inhibitor Screening Assay Kit). Set-up: purchased BPS Bioscience.
The subject of assay [2] is cathepsin L expression in A549 cells. The assay can be described thus: Cathepsin L expression in A549 cells (Western blot). The class given is cell-based, human. Particulars: for cathepsin L expression at protein level: A549 cells. Here is the method: Proteins (50 μg/well) were separated on 8-16% gradient SDS-PAGE gels and transferred to a PVDF membrane. […] Images were captured with Azure™ cSeries digital imaging system (Azure Biosystems, Dublin, Calif.) with auto-exposure settings. Densitometry was performed with NIH ImageJ software.
Cathepsin L expression: Expression of cathepsin L in cells was performed using Western blot. Briefly, 48 hours prior to the analysis, A549 cells were treated with PB at 5.0, and 10 μg/ml concentrations. Next, cells were washed with 1×PBS, lysed, and processed according to procedure described below.
Western blot: […] cells were lysed with lysis buffer [RIPA buffer plus 1× Protease Inhibitor (ThermoFisher Scientific, Waltham, Mass.)]. The protein estimation was performed with Dc Protein Assay (Bio-Rad, Hercules, Calif.). A 45 μg/well of protein was separated on 8-16% gradient SDS-PAGE gels and transferred to a PVDF membrane. Detection was performed with antibodies against cathepsin L at 1:200 dilution (Santa Cruz Biotechnology, Santa Cruz, Calif.) and against β-actin at 1:1000 dilution (Cell Signaling, Danvers, Mass.).
(A western blot detects proteins with antibodies after separation by electrophoresis.)

Assay [3] has as its target RBD of SARS-CoV-2 spike protein (Severe acute respiratory syndrome coronavirus 2, UniProt P0DTC2). Particulars: literature computational study; cited from earlier work.
Assay [4] has as its target RBD of SARS-CoV-2 spike protein binding to hACE2 receptor (Severe acute respiratory syndrome coronavirus 2, UniProt P0DTC2).
In assay [5] the target is T1, hACE2. The note with it: literature computational study (Jena et al.); cited from earlier work.
In the next assay the target is T2, recombinant hTMPRSS2 (Homo sapiens, UniProt O15393).
T2 construct: purchased Creative BioMart
In words: Recombinant TMPRSS2 activity assay (cell-free). The class given is biochemical. The note with it: 10-25 μg/ml, 3 h treatment.

For assay [6], the target named is T3, human recombinant cathepsin L (Homo sapiens, UniProt P07711).
T3 construct: purchased BPS Bioscience
In words: Cathepsin L activity, purified/recombinant enzyme (cell-free). In kind it is biochemical.
Experimental: Positive control contained only cathepsin L, and negative control containing cathepsin L and cathepsin L inhibitor E64d (25 μM). The fluorescence was recorded at extension/emission=360/480 nm with a fluorescence spectrometer (Tecan Group Ltd., Switzerland).

For assay [7], the system named is A549 cells expressing eGFP spike protein fusing with hACE2-overexpressing A549 cells. In kind it is cell-based, human. Particulars: 25 μg/ml, 4 h.
Assay [8] deals with T4, cathepsin L in A549 cells (Homo sapiens, UniProt P07711).
T4 construct: A549 cells were seeded in 6-well plates; endogenous in cells; host or cells: A549 (ATCC)
In words: Cellular cathepsin L activity (lysates of treated A549 cells). The class given is cell-based. Particulars: 25 μg/ml, not significant.
Experimental: Cathepsin L activity assays: Cellular cathepsin L activity assays were performed utilizing a Cathepsin L Activity Assay Kit (Abcam, Cambridge, Mass.) according to the manufacturer's protocol. […] The samples were then centrifuged for 2 min. at 4° C. to remove any insoluble material. Supernatants were collected and transferred to clean tubes that were kept on ice. […] The plates were incubated at 37° C. for 1 h and fluorescence signal was measure at Ex/Em=400/505 nm wavelength with a spectrofluorometer (Tecan Group Ltd, Switzerland). […] Results are expressed as a percentage of polyphenol-free control (mean+/−SD, n=6).
Cathepsin L activity assay and its cellular expression: Cathepsin L activity: Experiment was performed in cell lysates using a Cathepsin L Activity Assay Kit (Abcam, Cambridge, Mass.) according to the manufacturer's protocol. […] After 3 minutes of centrifuged for at 4° C., supernatants were collected and enzymatic reaction was set up by mixing 50 μl of treated sample, 50 μl of control sample, 50 μl of background control sample, 50 μl of positive and negative controls. […] Samples were incubated at 37° C. for 1 hour, and fluorescence was recorded at extension/emission=400/505 nm with a fluorescence spectrometer (Tecan Group Ltd., Switzerland).

Assay [9] concerns the target T5, cellular hACE2 in hACE2/A549 cells (Homo sapiens, UniProt Q9BYF1).
T5 construct: host or cells: A549 (human alveolar epithelial) stably overexpressing hACE2
The assay can be described thus: Cellular hACE2 activity assay. The note with it: cell-based.
Experimental: ACE2 activity assays: To determine the inhibitory effect of selected polyphenols on the activity of cellular hACE2 protein, hACE2/A549 cells were seeded in 48-well plates and allowed to adhere for 24 h or until reaching 99-100% of confluence. […] (Dnp)-OH. Finally, the plates were incubated at 37° C. for 1 h, and the fluorescence signal was measured at Ex/Em=320/405 nm wavelength with a spectrofluorometer (Tecan Group Ltd, Switzerland). […] Results are expressed as a percentage of polyphenol-free control (mean+/−SD, n=6).

Assay [10] deals with T1, hACE2. In words: Recombinant hACE2 activity assay (cell-free). The class given is biochemical. Set-up: purchased BPS Bioscience.
Experimental: To determine the inhibitory effect of selected polyphenols on the activity of recombinant hACE2 protein, an ACE2 Activity Screening Assay Kit (BPS Bioscience, San Diego, Calif.) was used according to the manufacturer's protocol. […] The positive control was a sample containing only ACE2 enzyme, and the negative control was a sample containing ACE2 enzyme and 10% DMSO. ACE2 fluorogenic substrate (10 μM) was added to each well, and the plate was incubated for 1 h at RT. The fluorescence was measured at Ex/Em=535/595 nm wavelength using a spectrofluorometer (Tecan Group Ltd, Switzerland). […] Results are expressed as a percentage of polyphenol-free control (mean+/−SD, n=6).
The positive control contained only ACE2 enzyme, and the negative control additionally contained 10% DMSO.
The test system of assay [11] is lysosomal/endosomal pH in A549 cells. The assay can be described thus: Endosomal/lysosomal pH assay. Particulars: 5.0-25 μg/ml; control approximately pH=5.0. The class given is cell-based, human.
Experimental: Endosomal/lysosomal pH assay: Endosomal pH was assessed according to a previously reported protocol [54]. […] Acridine orange (Thermo Fisher Scientific, Waltham, Mass.) was added directly to each dish to reach a final concentration of 6.6 μg/ml. The cells were additionally incubated at 37° C. with 5% CO2 for 20 min. and washed three times with 1×PBS. Live Cell Imaging Solution (LCIS) (Thermo Fisher Scientific, Waltham, Mass.) was added to the wells, and images were taken using a Zeiss Axio Observer A1 fluorescence microscope with a 40× magnification. […] Results are expressed as a percentage of polyphenol-free control (mean+/−SD, n=3).
A concurrent experiment was performed using pHrodo™ Green AM Intracellular pH Indicator (Thermo Fisher Scientific, Waltham, Mass.) according to the manufacturer's protocol. […] The plate was incubated for 30 min. at 37° C., washed again with LCIS, and fluorescence was measured at Ex/Em=509/533 nm wavelength using a spectrofluorometer (Tecan Group Ltd, Switzerland). pH identification was performed based on standard curve, using an Intracellular pH Calibration Buffer Kit according to the manufacturer's protocol (Thermo Fisher Scientific, Waltham, Mass.). […] Next, the fluorescence was measured Ex/Em=509/533 nm wavelength. […]

T1 sequence (Q9BYF1 18-805): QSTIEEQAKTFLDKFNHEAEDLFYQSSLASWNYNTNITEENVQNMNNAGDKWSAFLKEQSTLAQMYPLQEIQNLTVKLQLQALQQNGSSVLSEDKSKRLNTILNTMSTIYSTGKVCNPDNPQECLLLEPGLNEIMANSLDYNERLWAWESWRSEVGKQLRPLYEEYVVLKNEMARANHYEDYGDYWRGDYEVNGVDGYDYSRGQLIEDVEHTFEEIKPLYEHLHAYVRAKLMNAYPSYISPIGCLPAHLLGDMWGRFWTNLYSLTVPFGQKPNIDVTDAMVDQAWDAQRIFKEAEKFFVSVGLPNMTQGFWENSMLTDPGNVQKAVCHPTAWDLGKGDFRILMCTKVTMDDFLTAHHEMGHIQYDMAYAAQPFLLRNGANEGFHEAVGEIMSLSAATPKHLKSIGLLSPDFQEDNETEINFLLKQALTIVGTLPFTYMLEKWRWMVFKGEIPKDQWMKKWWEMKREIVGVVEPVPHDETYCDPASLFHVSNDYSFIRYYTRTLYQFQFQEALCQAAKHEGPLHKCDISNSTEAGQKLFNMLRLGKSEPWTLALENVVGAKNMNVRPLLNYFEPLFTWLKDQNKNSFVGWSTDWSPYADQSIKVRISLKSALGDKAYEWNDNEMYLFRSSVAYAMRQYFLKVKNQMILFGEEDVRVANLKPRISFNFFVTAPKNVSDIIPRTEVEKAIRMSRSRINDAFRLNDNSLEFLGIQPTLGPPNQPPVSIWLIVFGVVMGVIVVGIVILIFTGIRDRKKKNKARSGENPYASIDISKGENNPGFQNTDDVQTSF
T5 sequence (Q9BYF1 18-805): as above
T2 sequence (O15393 whole entry): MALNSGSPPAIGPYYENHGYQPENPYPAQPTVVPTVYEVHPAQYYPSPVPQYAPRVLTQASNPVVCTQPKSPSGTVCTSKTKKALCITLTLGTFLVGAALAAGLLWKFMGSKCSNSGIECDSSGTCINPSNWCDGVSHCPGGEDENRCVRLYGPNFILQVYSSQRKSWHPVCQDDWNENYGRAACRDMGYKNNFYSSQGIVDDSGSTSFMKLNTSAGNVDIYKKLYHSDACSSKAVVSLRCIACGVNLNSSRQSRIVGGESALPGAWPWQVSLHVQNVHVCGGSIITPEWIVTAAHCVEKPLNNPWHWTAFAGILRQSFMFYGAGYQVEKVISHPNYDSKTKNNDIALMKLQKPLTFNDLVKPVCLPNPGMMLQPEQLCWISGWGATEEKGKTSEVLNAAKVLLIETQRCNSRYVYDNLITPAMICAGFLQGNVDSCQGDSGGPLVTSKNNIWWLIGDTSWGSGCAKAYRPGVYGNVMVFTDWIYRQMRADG
T3 sequence (P07711 114-333): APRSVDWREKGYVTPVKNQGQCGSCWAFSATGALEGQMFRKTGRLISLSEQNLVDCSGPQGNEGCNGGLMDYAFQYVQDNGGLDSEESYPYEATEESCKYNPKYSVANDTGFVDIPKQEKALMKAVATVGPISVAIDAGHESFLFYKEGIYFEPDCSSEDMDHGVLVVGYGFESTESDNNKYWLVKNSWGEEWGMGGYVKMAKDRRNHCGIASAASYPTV
T4 sequence (P07711 114-333): as above
Experimental for recombinant hTMPRSS2: To this reaction 10 μM of TMPRSS2 enzyme in assay buffer (50 mM Tris pH=8, 150 mM NaCl) was added. Following 1 h incubation at RT, detection of fluorescent signal was performed using a spectrofluorometer at Ex/Em=360/440 nm wavelength (Tecan Group Ltd, Switzerland). The positive control was 100 μM camostat mesylate. […] Results are expressed as a percentage of polyphenol-free control (mean+/−SD, n=6).
Fluorescence was assessed using a spectrofluorometer at extension/emission=360/440 nm (Tecan Group Ltd., Switzerland). The positive control was 100 μM camostat mesylate.

Regarding `COc1cc(/C=C/C(=O)CC(=O)/C=C/c2ccc(O)c(OC)c2)ccc1O` [Curcumin], the “concentration at which binding efficacy to ACE2 was shown” value at hACE2 [1] is 10 to 25 µg/mL. For the same compound, the “cathepsin L expression at protein level” value in assay [2] is “neither brazilin nor curcumin down-regulated cathepsin L expression”. The “binding energy ΔG to RBD / viral spike protein” value in [3] was -10.5 kcal/mol. Also, the “Binding with RBD (% of control ± SD)” value in assay [4] is on record as 100 ± 0.2 % of control. At hACE2 [5], the “binding energy to hACE2” value is -8.9 kcal/mol.
`Oc1ccc2c(c1)OC[C@]1(O)Cc3cc(O)c(O)cc3[C@H]21` [Brazilin]: the “direct binding to ACE2 receptor” value at hACE2 [1] (polyphenols 5.0-25 μg/ml, PB 5.0 and 10 μg/ml) is reported as “does not bind to ACE2 directly”. Moreover, the “inhibition of recombinant hTMPRSS2 activity” value at recombinant hTMPRSS2 was 20-30%. Besides, in assay [2], the “cathepsin L expression at protein level” value is “neither brazilin nor curcumin down-regulated cathepsin L expression”. Also, the “effect on recombinant cathepsin L” value in [6] is reported as “minor, not significant effect”. Besides, the “decrease of cell-cell fusion” value in [7] came to 40%. In addition, the “Binding with RBD (% of control ± SD)” value in assay [4] is recorded as 100 ± 0.1 % of control. Also, in assay [8], the “decrease of cathepsin L activity in cell lysates” value was 15%. In addition, the “effect on ACE2 activity” value (in [9]; on hACE2 [10]) was “no effects” throughout.
Regarding Theaflavin-3,3′-digallate, the “decrease of cathepsin L expression” value in assay [2] (starting from 10 μg/ml) is “about 20%”. Further, the “lysosomal/endosomal pH reached” value in [11] is reported as 5.5-6.0.
